# According to US10336739B2, “4-hydroxy-3-(heteroaryl)pyridine-2-one APJ agonists” (BRISTOL-MYERS SQUIBB COMPANY, priority 2015, dated 2019):
# Biological target: human APJ receptor (Homo sapiens (Human), UniProt P35414)
# Test: Intracellular cAMP accumulation assay (APJ hcAMP, HTRF)
# Assay type: cell-based
# Conditions: HEK293 cells stably expressing human APJ receptor; inhibition of forskolin-mediated cAMP production; read-out: Human APJ cAMP EC50 Potency range
# Experimental: Intracellular cAMP Accumulation Assay
# HEK293 cells stably expressing human APJ receptor were used to assess the activity of compounds. Cultured cells were detached and resuspended in the cAMP Homogeneous Time-Resolved Fluorescence (HTRF) assay buffer (Cisbio cat; #62AM4PEJ). The assay was performed in 384-well assay plates (Perkin-Elmer; cat #6008289) according to assay protocol provided by the manufacturer. Serial dilutions of a compound together with assay buffer containing […] and 2 μM forskolin were added to each well containing 5,000 cells and incubated for 30 minutes at room temperature. Subsequently, cAMP D2 reagent was added in the lysis buffer followed by the EuK antibody (Cisbio; cat #62AM4PEJ) and incubated for 60 min. The fluorescence emission ratio was measured using fluorometer. The intracellular cAMP concentrations (compound-stimulated inhibition of forskolin-mediated cAMP production) were calculated by extrapolation from a standard curve using known cAMP concentrations. The EC50 values were obtained by fitting the data to a sigmoidal concentration-response curve with variable slope.
# Sequence of human APJ receptor (P35414 whole entry): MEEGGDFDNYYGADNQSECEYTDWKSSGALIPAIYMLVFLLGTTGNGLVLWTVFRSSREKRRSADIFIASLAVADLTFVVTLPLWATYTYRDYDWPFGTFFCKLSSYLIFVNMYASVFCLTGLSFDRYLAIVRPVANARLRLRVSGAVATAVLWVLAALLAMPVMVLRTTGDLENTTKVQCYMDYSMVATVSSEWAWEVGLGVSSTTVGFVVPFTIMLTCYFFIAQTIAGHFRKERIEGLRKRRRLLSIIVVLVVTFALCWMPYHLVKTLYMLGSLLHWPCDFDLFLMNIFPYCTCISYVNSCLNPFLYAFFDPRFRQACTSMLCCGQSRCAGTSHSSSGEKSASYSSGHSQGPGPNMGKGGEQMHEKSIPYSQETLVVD
row,Compound,EC50 [nM]
1,"CCOCc1nc(O)c(-c2nnc(Cn3ccccc3=O)o2)c(O)c1-c1c(OC)cc(F)cc1OC [Example 212, 1-({5-[6-(ethoxymethyl)-5-(4-fluoro-2,6-dimethoxyphenyl)-2,4-dihydroxypyridin-3-yl]-1,3,4-oxadiazol-2-yl}methyl)-1,2-dihydropyridin-2-one]",10 to 100

# Same assay, conditions: HEK293 cells stably expressing human APJ receptor; inhibition of forskolin-mediated cAMP production; read-out: hAPJ cAMP EC50 (nM) Potency range
row,Compound,EC50 [nM]
1,"CCCCc1nc(O)c(-c2nnc(CC(=O)Nc3cc(C)n[nH]3)o2)c(O)c1-c1c(OC)cccc1OC [Example 263, 2-{5-[6-butyl-5-(2,6-dimethoxyphenyl)-2,4-dihydroxy-pyridin-3-yl]-1,3,4-oxadiazol-2-yl}-N-(3-methyl-1H-pyrazol-5-yl)acetamide]",0.01 to 10
2,"CCCCc1nc(O)c(-c2nnc(CNC(=O)c3ccccc3)o2)c(O)c1-c1cccc(OC)c1OC [Example 250, N-({5-[6-butyl-5-{2,3-dimethoxyphenyl)-2,4-dihydroxy-pyridin-3-yl]-1,3,4-oxadiazol-2-yl}methyl) benzamide]",0.01 to 10
3,"COCCOCc1nc(O)c(-c2nnc(Cc3ccc(Cl)cc3)o2)c(O)c1-c1c(OC)cccc1OC [Example 244, 3-{5-[(4-chlorophenyl)methyl]-1,3,4-oxadiazol-2-yl}-5-(2,6-dimethoxyphenyl)-6-[(2-methoxyethoxy)methyl]pyridine-2,4-diol]",10 to 100
4,"CCOCc1nc(O)c(-c2nnc(Cc3ccc(Cl)cn3)o2)c(O)c1-c1c(O)cccc1OC [Example 274, 3-{5-[(5-chloropyridin-2-yl)methyl]-1,3,4-oxadiazol-2-yl}-6-(ethoxymethyl)-5-(2-hydroxy-6-methoxyphenyl) pyridine-2,4-diol]",0.01 to 10

# Same assay, conditions: HEK293 cells stably expressing human APJ receptor; inhibition of forskolin-mediated cAMP production; read-out: hAPJ cAMP EC50 Potency range
row,Compound,EC50 [nM]
1,"CCCCc1nc(O)c(-c2nnc(Cc3n[nH]c(=O)c4ccccc34)o2)c(O)c1-c1c(OC)cccc1OC [Example 44, 4-({5-[6-butyl-5-(2,6-dimethoxyphenyl)-2,4-dihydroxypyridin-3-yl]-1,3,4-oxadiazol-2-yl}methyl)-1,2-dihydrophthalazin-1-one]",10 to 100
2,"CCCCc1nc(O)c(-c2nnc(C3CC3)o2)c(O)c1-c1c(OC)cccc1OC [Example 14, 6-butyl-3-(5-cyclopropyl-1,3,4-oxadiazol-2-yl)-5-(2,6-dimethoxyphenyl) pyridine-2,4-diol]",100 to 300
3,"CCCCc1nc(O)c(-c2nnc(Cc3ccc(F)c(F)c3)o2)c(O)c1-c1cccc(C(C)C)c1 [Example 145, 6-butyl-3-{5-[(3,4-difluorophenyl)methyl]-1,3,4-oxadiazol-2-yl}-5-[3-(propan-2-yl)phenyl]pyridine-2,4-diol]",10 to 100
4,"CCCCc1nc(O)c(-c2nnc(Cc3nc(-c4ccccc4)oc3C)o2)c(O)c1-c1c(OC)cccc1OC [Example 91, 6-butyl-5-(2,6-dimethoxyphenyl)-3-{5-[(5-methyl-2-phenyl-1,3-oxazol-4-yl)methyl]-1,3,4-oxadiazol-2-yl}pyridine-2,4-diol]",0.01 to 10
5,"CCCCc1nc(O)c(-c2nnc(-c3ccccc3Cl)o2)c(O)c1-c1c(OC)cccc1OC [Example 11, 6-butyl-3-[5-(2-chlorophenyl)-1,3,4-oxadiazol-2-yl]-5-(2,6-dimethoxyphenyl) pyridine-2,4-diol]",100 to 300
6,"CCCCc1nc(O)c(-c2nnc(Cc3nnc(-c4ccccn4)o3)o2)c(O)c1-c1c(OC)cccc1OC [Example 207, 6-butyl-5-(2,6-dimethoxyphenyl)-3-(5-{[5-(pyridin-2-yl)-1,3,4-oxadiazol-2-yl]methyl}-1,3,4-oxadiazol-2-yl)pyridine-2,4-diol]",0.01 to 10
7,"CCCCc1nc(O)c(-c2nnc(CCc3nc(-c4ccccn4)no3)o2)c(O)c1-c1c(OC)cccc1OC [Example 83, 6-butyl-5-(2,6-dimethoxyphenyl)-3-(5-{2-[3-(pyridin-2-yl)-1,2,4-oxadiazol-5-yl]ethyl}-1,3,4-oxadiazol-2-yl)pyridine-2,4-diol]",0.01 to 10
8,"CCCCc1nc(O)c(-c2nnc(Cc3ccc(F)c(F)c3)o2)c(O)c1-c1cccc(COC)c1 [Example 146, 6-butyl-3-{5-[(3,4-difluorophenyl)methyl]-1,3,4-oxadiazol-2-yl}-5-[3-(methoxymethyl)phenyl]pyridine-2,4-diol]",10 to 100
9,"CCCCc1nc(O)c(-c2nnc(Cc3ccc(F)c(F)c3)o2)c(O)c1-c1cccc(CO)c1 [Example 143, 6-butyl-3-{5-[(3,4-difluorophenyl)methyl]-1,3,4-oxadiazol-2-yl}-5-[3-(hydroxymethyl)phenyl]pyridine-2,4-diol]",0.01 to 10
10,"CCCCc1nc(O)c(-c2nnc(Cc3ccc(Cl)cc3Cl)o2)c(O)c1-c1c(OC)cccc1OC [Example 35, 6-butyl-3-{5-[(2,4-dichlorophenyl)methyl]-1,3,4-oxadiazol-2-yl}-5-(2,6-dimethoxyphenyl) pyridine-2,4-diol]",0.01 to 10
11,"CCCCc1nc(O)c(-c2nnc(Cn3ccccc3=O)o2)c(O)c1-c1c(OC)cccc1OC [Example 114, 1-({5-[6-butyl-5-(2,6-dimethoxyphenyl)-2,4-dihydroxypyridin-3-yl]-1,3,4-oxadiazol-2-yl}methyl)-1,2-dihydropyridin-2-one]",0.01 to 10
12,"CCOCc1nc(O)c(-c2nnc(Cc3ccc(Cl)cc3)o2)c(O)c1-c1c(OC)cc(F)cc1OC [Example 214, 3-{5-[(4-chlorophenyl)methyl]-1,3,4-oxadiazol-2-yl}-6-(ethoxymethyl)-5-(4-fluoro-2,6-dimethoxyphenyl) pyridine-2,4-diol]",0.01 to 10
13,"CCCCc1nc(O)c(-c2nnc(CNC(=O)c3ccccc3)o2)c(O)c1-c1c(OC)cccc1OC [Example 171, N-({5-[6-butyl-5-(2,6-dimethoxyphenyl)-2,4-dihydroxypyridin-3-yl]-1,3,4-oxadiazol-2-yl}methyl) benzamide]",0.01 to 10
14,"CCCCc1nc(O)c(-c2nnc(Cc3ccc(F)c(F)c3)o2)c(O)c1-c1cccc(OC)c1 [Example 139, 6-butyl-3-{5-[(3,4-difluorophenyl)methyl]-1,3,4-oxadiazol-2-yl}-5-(3-methoxyphenyl) pyridine-2,4-diol]",10 to 100
15,"CCCCc1nc(O)c(-c2nnc(CCc3ccc(Cl)c(Cl)c3)o2)c(O)c1-c1c(OC)cccc1OC [Example 85, 6-butyl-3-{5-[2-(3,4-dichlorophenyl)ethyl]-1,3,4-oxadiazol-2-yl}-5-(2,6-dimethoxyphenyl) pyridine-2,4-diol]",10 to 100
16,"CCCCc1nc(O)c(-c2nnc(CN(C)C(=O)c3cccc(Cl)c3)o2)c(O)c1-c1c(OC)cccc1OC [Example 156, N-({5-[6-butyl-5-(2,6-dimethoxyphenyl)-2,4-dihydroxypyridin-3-yl]-1,3,4-oxadiazol-2-yl}methyl)-3-chloro-N-methylbenzamide]",0.01 to 10
17,"CCCCc1nc(O)c(-c2nnc(CN(C)C(=O)c3cccnc3)o2)c(O)c1-c1c(OC)cccc1OC [Example 165, N-({5-[6-butyl-5-(2,6-dimethoxyphenyl)-2,4-dihydroxypyridin-3-yl]-1,3,4-oxadiazol-2-yl}methyl)-N-methylpyridine-3-carboxamide]",0.01 to 10
18,"CCCCc1nc(O)c(-c2nnc(Cc3ccc(F)c(C(F)(F)F)c3)o2)c(O)c1-c1c(OC)cccc1OC [Example 34, 6-butyl-5-(2,6-dimethoxyphenyl)-3-(5-{[4-fluoro-3-(trifluoromethyl)phenyl]methyl}-1,3,4-oxadiazol-2-yl)pyridine-2,4-diol]",10 to 100
